From the NIST ThermoML archive (doi:10.1021/je050440b) come the findings set out here.

A short description of this data set: activity coefficient (dimensionless); of the first substance listed, at infinite dilution; xn = mol fraction of the nth substance listed. The settings on record: Liquid, Chromatography, x1 = 0.

± gives the expanded uncertainty stated by the source.

Turning to `C1=CCCC=C1` [1,3-cyclohexadiene] + CCCC[N+](C)(C)C.O=S(=O)([N-]S(=O)(=O)C(F)(F)F)C(F)(F)F, the activity coefficient turned out to be 3.59 ± 0.24 (305.95 K); 3.37 ± 0.23 (322.55 K); 3.18 ± 0.22 (333.25 K); 3.03 ± 0.21 (343.65 K); 2.91 ± 0.2 (354.15 K); 2.81 ± 0.19 (364.55 K).

For `C1COCCO1` [1,4-dioxane] + CCCC[N+](C)(C)C.O=S(=O)([N-]S(=O)(=O)C(F)(F)F)C(F)(F)F, the activity coefficient runs as follows: (343.75 K) 0.74 ± 0.05; (354.25 K) 0.73 ± 0.05.

Regarding `C=CCCCCCCCC` [1-decene] + CCCC[N+](C)(C)C.O=S(=O)([N-]S(=O)(=O)C(F)(F)F)C(F)(F)F, the activity coefficient by setting is: (306.15 K) 50.4 ± 3.5; (311.95 K) 47.8 ± 3.3; (322.55 K) 43.1 ± 3; (333.25 K) 39 ± 2.7; (343.65 K) 35.2 ± 2.4; (354.05 K) 32.1 ± 2.2.

As for `C=CCCCCCCCCCC` [1-dodecene] + CCCC[N+](C)(C)C.O=S(=O)([N-]S(=O)(=O)C(F)(F)F)C(F)(F)F, the activity coefficient (333.25 K) was determined as 76.8 ± 5.3; the activity coefficient (343.75 K) was 68.9 ± 4.7; the activity coefficient (354.05 K) is 61.4 ± 4.2; the activity coefficient (364.55 K) came out at 54.6 ± 3.7; the activity coefficient (371.95 K) came out at 49 ± 3.4.

Consider `C=CCCCCC` [1-heptene] + CCCC[N+](C)(C)C.O=S(=O)([N-]S(=O)(=O)C(F)(F)F)C(F)(F)F, for which the activity coefficient (306.75 K) was 15.6 ± 1.1; the activity coefficient (311.95 K) stood at 14.9 ± 1; the activity coefficient (322.55 K) was 13.9 ± 0.95; the activity coefficient (333.25 K) is 12.9 ± 0.88; the activity coefficient (343.65 K) amounted to 12 ± 0.82; the activity coefficient (354.05 K) stood at 11.3 ± 0.77.

Turning to `C=CCCCCCCC` [1-nonene] + CCCC[N+](C)(C)C.O=S(=O)([N-]S(=O)(=O)C(F)(F)F)C(F)(F)F, the activity coefficient turned out to be 34.1 ± 2.3 (306.65 K); 32.6 ± 2.2 (311.98 K); 29.9 ± 2 (322.55 K); 26.7 ± 1.8 (333.25 K); 24.5 ± 1.7 (343.65 K); 22.3 ± 1.5 (354.05 K). Where the note is “364.55 K”, the activity coefficient came out at 20.9 ± 1.4.

For the molecule `C=CCCC` [1-pentene] + CCCC[N+](C)(C)C.O=S(=O)([N-]S(=O)(=O)C(F)(F)F)C(F)(F)F, the activity coefficient is, setting by setting: (301.85 K) 6.06 ± 0.41; (312.35 K) 5.79 ± 0.39.

Take `C=CCCCCCCCCC` [1-undecene] + CCCC[N+](C)(C)C.O=S(=O)([N-]S(=O)(=O)C(F)(F)F)C(F)(F)F: the activity coefficient is, setting by setting: (322.55 K) 62.7 ± 4.3; (333.25 K) 56.1 ± 3.8; (343.65 K) 50.7 ± 3.5; (354.05 K) 45.8 ± 3.1; (364.55 K) 42.6 ± 2.9; (374.95 K) 37.6 ± 2.6.

As for `CC(C)CO` [2-methyl-1-propanol] + CCCC[N+](C)(C)C.O=S(=O)([N-]S(=O)(=O)C(F)(F)F)C(F)(F)F, the activity coefficient reads like this: (302.55 K) 3.98 ± 0.27; (312.15 K) 3.52 ± 0.24; (322.85 K) 3.13 ± 0.21; (333.35 K) 2.72 ± 0.19; (343.65 K) 2.46 ± 0.17; (354.05 K) 2.23 ± 0.15.

Consider `CCC(C)(C)O` [2-methylbutan-2-ol] + CCCC[N+](C)(C)C.O=S(=O)([N-]S(=O)(=O)C(F)(F)F)C(F)(F)F, for which the activity coefficient came to 2.53 ± 0.17 (302.55 K); 2.32 ± 0.16 (312.15 K); 1.94 ± 0.13 (333.25 K); 1.8 ± 0.12 (343.65 K); 1.67 ± 0.11 (354.05 K).

As for `CC(C)(C)O` [2-methylpropan-2-ol] + CCCC[N+](C)(C)C.O=S(=O)([N-]S(=O)(=O)C(F)(F)F)C(F)(F)F, the activity coefficient is, setting by setting: (302.55 K) 2.24 ± 0.15; (312.15 K) 2.01 ± 0.14; (322.85 K) 1.79 ± 0.12; (333.25 K) 1.61 ± 0.11; (343.65 K) 1.47 ± 0.1; (354.05 K) 1.34 ± 0.09.

On to `CN1CCCC1=O` [N-methylpyrrolidone] + CCCC[N+](C)(C)C.O=S(=O)([N-]S(=O)(=O)C(F)(F)F)C(F)(F)F, for which the activity coefficient by setting is: (312.35 K) 112 ± 7.7; (322.75 K) 81.3 ± 5.6; (333.35 K) 60.4 ± 4.1; (343.75 K) 46.1 ± 3.1; (354.15 K) 36.5 ± 2.5; (364.75 K) 28 ± 1.9. For the same molecule, the activity coefficient (375.15 K) is 22.4 ± 1.5.

On to `CC(C)=O` [acetone] + CCCC[N+](C)(C)C.O=S(=O)([N-]S(=O)(=O)C(F)(F)F)C(F)(F)F, for which the activity coefficient reads like this: (301.85 K) 0.42 ± 0.04; (312.45 K) 0.42 ± 0.04; (343.75 K) 0.4 ± 0.03.

Regarding `CC#N` [acetonitrile] + CCCC[N+](C)(C)C.O=S(=O)([N-]S(=O)(=O)C(F)(F)F)C(F)(F)F, the activity coefficient reads like this: (301.75 K) 0.52 ± 0.04; (312.45 K) 0.5 ± 0.04; (322.95 K) 0.49 ± 0.04; (333.35 K) 0.47 ± 0.04; (343.75 K) 0.46 ± 0.04.

Regarding `c1ccccc1` [benzene] + CCCC[N+](C)(C)C.O=S(=O)([N-]S(=O)(=O)C(F)(F)F)C(F)(F)F, the activity coefficient runs as follows: (322.75 K) 1.3 ± 0.08; (333.35 K) 1.26 ± 0.08; (343.55 K) 1.26 ± 0.08; (354.05 K) 1.22 ± 0.08; (364.45 K) 1.2 ± 0.08.

As to `CCCCO` [butan-1-ol] + CCCC[N+](C)(C)C.O=S(=O)([N-]S(=O)(=O)C(F)(F)F)C(F)(F)F, the activity coefficient reads like this: (302.55 K) 3.62 ± 0.25; (312.15 K) 3.22 ± 0.22; (322.85 K) 2.83 ± 0.19; (333.35 K) 2.49 ± 0.17; (343.65 K) 2.24 ± 0.15.

Take `CCC(C)O` (centres undefined) [butan-2-ol] + CCCC[N+](C)(C)C.O=S(=O)([N-]S(=O)(=O)C(F)(F)F)C(F)(F)F: the activity coefficient by setting is: (333.15 K) 2.06 ± 0.14; (343.65 K) 1.87 ± 0.13; (354.05 K) 1.7 ± 0.11; (364.45 K) 1.53 ± 0.1; (374.95 K) 1.38 ± 0.09.

As to `CCCC=O` [butanal] + CCCC[N+](C)(C)C.O=S(=O)([N-]S(=O)(=O)C(F)(F)F)C(F)(F)F, the activity coefficient (301.75 K) was determined as 0.84 ± 0.05; the activity coefficient (312.25 K) came out at 0.8 ± 0.05; the activity coefficient (322.75 K) worked out at 0.79 ± 0.05; the activity coefficient (343.55 K) came out at 0.77 ± 0.05; the activity coefficient (354.15 K) turned out to be 0.76 ± 0.05.

In the case of `CCCCc1ccccc1` [butylbenzene] + CCCC[N+](C)(C)C.O=S(=O)([N-]S(=O)(=O)C(F)(F)F)C(F)(F)F, the activity coefficient (333.25 K) amounted to 5.77 ± 0.39; the activity coefficient (343.65 K) is 5.62 ± 0.38; the activity coefficient (354.05 K) came to 5.43 ± 0.37; the activity coefficient (364.45 K) stood at 5.31 ± 0.36; the activity coefficient (374.95 K) stood at 5.16 ± 0.35.

As to `C1CCCCC1` [cyclohexane] + CCCC[N+](C)(C)C.O=S(=O)([N-]S(=O)(=O)C(F)(F)F)C(F)(F)F, the activity coefficient runs as follows: (300.95 K) 4.15 ± 0.28; (312.25 K) 3.84 ± 0.26; (322.85 K) 3.6 ± 0.25; (333.35 K) 3.37 ± 0.23.

Regarding `OC1CCCCC1` [cyclohexanol] + CCCC[N+](C)(C)C.O=S(=O)([N-]S(=O)(=O)C(F)(F)F)C(F)(F)F, the activity coefficient (343.65 K) was 3.52 ± 0.24; the activity coefficient (354.05 K) stood at 2.89 ± 0.2; the activity coefficient (364.45 K) is 2.54 ± 0.17; the activity coefficient (373.95 K) amounted to 2.27 ± 0.15; the activity coefficient (385.55 K) amounted to 1.95 ± 0.13.

Consider `C1=CCCCC1` [cyclohexene] + CCCC[N+](C)(C)C.O=S(=O)([N-]S(=O)(=O)C(F)(F)F)C(F)(F)F, for which the activity coefficient runs as follows: (312.05 K) 6.87 ± 0.47; (322.55 K) 6.45 ± 0.44; (333.25 K) 5.94 ± 0.4; (343.65 K) 5.5 ± 0.37; (354.15 K) 5.31 ± 0.36.

Consider `CCCCCCCCCC` [decane] + CCCC[N+](C)(C)C.O=S(=O)([N-]S(=O)(=O)C(F)(F)F)C(F)(F)F, for which the activity coefficient (302.15 K) was determined as 97.8 ± 6.7; the activity coefficient (312.15 K) was determined as 87.5 ± 6; the activity coefficient (322.65 K) turned out to be 77.5 ± 5.3; the activity coefficient (333.25 K) is 67.2 ± 4.6; the activity coefficient (343.65 K) was 59.9 ± 4.1; the activity coefficient (354.05 K) was 53.7 ± 3.7.

For the molecule `CN(C)C=O` [dimethylformamide] + CCCC[N+](C)(C)C.O=S(=O)([N-]S(=O)(=O)C(F)(F)F)C(F)(F)F, the activity coefficient (364.55 K) was 0.29 ± 0.03, the activity coefficient (375.15 K) stood at 0.29 ± 0.03, the activity coefficient (385.55 K) was 0.3 ± 0.03 and the activity coefficient (396.15 K) amounted to 0.3 ± 0.03.

As to `CCCCCCCCCCCC` [dodecane] + CCCC[N+](C)(C)C.O=S(=O)([N-]S(=O)(=O)C(F)(F)F)C(F)(F)F, the activity coefficient (333.25 K) is 128 ± 8.8, the activity coefficient (343.65 K) turned out to be 110 ± 7.5 and the activity coefficient (354.05 K) amounted to 92.3 ± 6.3.
